# Results taken from patent US10857197B2, “Treatment of HMGB1-mediated inflammation” (The Feinstein Institue for Medical Research, priority 2014, dated 2020).
# What was measured:
# RAW 264.7 cells = assay: TNF release from RAW 264.7 cells stimulated with HMGB1 isoforms; type: cell-based, murine; details: 1 μg/ml, 16 h
# Protocol: (§1) Cell isolation and culture. […] […]. TNF released was measured by ELISA.
# (§2) Cytokine and NF-κB measurements. […] Twenty two cytokines or chemokines were determined simultaneously.
# human TLR4 = human TLR4 (Homo sapiens, UniProt O00206); assay: SPR binding to TLR4 coated on the chip
# Sequence of human TLR4 (O00206 24-839): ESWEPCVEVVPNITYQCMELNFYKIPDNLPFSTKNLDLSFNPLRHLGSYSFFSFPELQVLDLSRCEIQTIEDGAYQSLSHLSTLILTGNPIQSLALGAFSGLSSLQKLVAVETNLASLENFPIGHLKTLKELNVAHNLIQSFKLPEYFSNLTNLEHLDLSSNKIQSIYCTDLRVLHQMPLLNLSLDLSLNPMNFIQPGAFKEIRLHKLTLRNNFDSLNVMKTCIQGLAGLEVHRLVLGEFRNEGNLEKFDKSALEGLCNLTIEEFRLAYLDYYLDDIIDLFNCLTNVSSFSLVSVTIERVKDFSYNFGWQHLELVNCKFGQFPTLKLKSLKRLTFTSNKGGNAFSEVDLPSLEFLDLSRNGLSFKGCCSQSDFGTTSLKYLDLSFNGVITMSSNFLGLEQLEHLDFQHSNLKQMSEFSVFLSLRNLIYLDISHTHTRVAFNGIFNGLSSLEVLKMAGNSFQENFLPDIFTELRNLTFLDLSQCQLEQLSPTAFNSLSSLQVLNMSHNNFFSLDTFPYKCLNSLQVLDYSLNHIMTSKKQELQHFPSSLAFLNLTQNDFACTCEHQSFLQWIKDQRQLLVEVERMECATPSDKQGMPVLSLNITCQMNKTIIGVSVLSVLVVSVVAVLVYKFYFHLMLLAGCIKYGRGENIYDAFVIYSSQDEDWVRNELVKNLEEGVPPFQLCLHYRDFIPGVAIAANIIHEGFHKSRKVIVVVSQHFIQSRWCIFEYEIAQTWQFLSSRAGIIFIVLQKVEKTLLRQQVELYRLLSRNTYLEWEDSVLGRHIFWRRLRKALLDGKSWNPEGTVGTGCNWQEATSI
# human MD2 = molecular target: T1, human MD2 (Homo sapiens, UniProt Q9Y6Y9); assay: Surface plasmon resonance (BIAcore) binding to human MD2; details: SPR
# T1 sequence (Q9Y6Y9 19-160): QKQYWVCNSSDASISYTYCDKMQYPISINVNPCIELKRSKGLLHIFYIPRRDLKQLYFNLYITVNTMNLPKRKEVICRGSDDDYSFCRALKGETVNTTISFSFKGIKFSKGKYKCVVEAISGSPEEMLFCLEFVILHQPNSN
# [1] = tested on: HMGB1-induced TNF release, primary human macrophages; assay: HMGB1-induced TNF release in primary human macrophages (ELISA); type: cell-based; details: HMGB1 1 μg/ml, 16 h
# [2] = tested on: thioglycollate-elicited peritoneal mouse macrophages; assay: HMGB1-induced cytokine release, mouse peritoneal macrophages (cytokine Ab array); type: cell-based; details: HMGB1 1 μg/ml, peptide 50 μg/ml, 16 h
# Protocol: as §1, §2
# [3] = tested on: LPS-stimulated primary human macrophages; assay: LPS-stimulated cytokine/chemokine release, primary human macrophages (cytokine Ab array); type: cell-based; details: LPS 2 ng/ml, peptide 50 μg/ml, 16 h
# Protocol: as §2
# [4] = tested on: LPS-induced systemic cytokine levels; assay: LPS injection in mice, serum TNF and IL-6; type: in vivo; details: LPS 8 mg/kg i.p., peptide 500 μg/mouse i.p., 90 minutes
# Protocol: as §2
# [5] = Acetaminophen (APAP) hepatic toxicity model; type: in vivo, mouse
# Protocol: For the acetaminophen (APAP) hepatic toxicity model, three sets of experiments were conducted. In all experiments, mice were routinely fasted overnight and received intraperitoneal (IP) injection of APAP (350 mg/kg for survival studies and 400 mg/kg for serum measurements when mice were euthanized at 24 h post-APAP) as previous described. […] Mice had APAP injection and were euthanized 24 hours later (for serum measurements) or monitored for 2 weeks (for survival studies). […] In survival experiments, mice had APAP injection and received anti-HMGB1 antibodies (5 μg/mouse, IP, once daily for 4 days followed by two additional doses once every other day beginning at 2 hours post-APAP). Irrelevant non-immune IgG was used as controls. For serum measurements, mice subjected to APAP injection and received injection of monoclonal anti-HMGB1 antibody (5 μg/mouse, injected IP at 2 and 7 hours post-APAP) and euthanized at 24 hours post-APAP. The third set of experiments was used to assess the efficacy of P5779 in APAP model in wild type mice. […] Hepatotoxicity was determined by serum levels of glutamate dehydrogenase (GLDH), alanine aminotransferease (ALT) and aspartate aminotransferase (AST) as described previously. Antoine et al., Hepatology 58:777-787 (2013).
# Histological evaluation. […] sections were stained with hematoxylin and eosin.
# [6] = Cecal ligation and puncture (CLP) sepsis model; type: in vivo; details: 50 or 500 μg/mouse i.p. once a day for 4 days from 24 h after CLP
# Excerpt: Survival was monitored for 2 weeks.
# [7] = tested on: Poly I:C, S100A12, LPS, PGN and CpG DNA-mediated TNF release, primary human macrophages; details: 16 h
# [8] = 500 μg/mouse i.p. at surgery, 6 h
# HMGB1 = molecular target: T2, HMGB1 (Rattus norvegicus, UniProt P63159); assay: SPR binding of peptide to HMGB1 coated on the chip; details: absence of MD2
# T2 sequence (P63159 1-215): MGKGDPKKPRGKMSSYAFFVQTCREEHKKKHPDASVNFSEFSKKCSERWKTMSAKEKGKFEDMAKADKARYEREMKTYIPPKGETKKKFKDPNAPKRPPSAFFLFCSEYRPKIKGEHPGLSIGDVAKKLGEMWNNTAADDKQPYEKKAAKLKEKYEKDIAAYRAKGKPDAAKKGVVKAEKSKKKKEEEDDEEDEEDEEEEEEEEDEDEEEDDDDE
molecule,measurement,setting,value
disulfide HMGB1: recombinant HMGB1 with Cys23-Cys45 disulfide bond and reduced Cys106,TNF release induced by HMGB1 isoform,RAW 264.7 cells,induced TNF secretion
same,HMGB1 binding to TLR4 in the absence of MD2,human TLR4; disulfide HMGB1 100 nM,incapable of directly binding to TLR4
same,Kd,"human MD2; read-out: apparent Kd of HMGB1 binding to MD2, MD2 or HMGB1 immobilized on the chip",12 nM
"SFSE (MD2 binding protein) [control peptide, reference compound]",inhibition of HMGB1-induced TNF release (qualitative),[1],abolished the capacity to inhibit HMGB1-induced TNF release
same,MD2-binding capacity (qualitative),human MD2; peptides 100 nM,abolished the MD2-binding capacity
"N[C@@H](Cc1ccccc1)C(=O)N[C@@H](CO)C(=O)N[C@@H](CO)C(=O)N[C@@H](CCC(=O)O)C(=O)O [P5779, FSSE]",inhibition of HMGB1-induced TNF release (qualitative),[1],significantly inhibited
same,"HMGB1-induced release of IL-6, IL-12p40/p70, RANTES and MCP-1",[2],significantly reduced
same,LPS-stimulated cytokine/chemokine release in vitro,[3],did not inhibit
same,"LPS-induced systemic cytokine levels (serum TNF, IL-6)",[4],failed to attenuate
same,survival after APAP,"[5]; 500 μg/mouse i.p. once a day for 5 days, 2 weeks",improved survival
same,"APAP-induced elevation of hepatic serum enzymes (AST, ALT), TNF, liver necrosis","[5]; 50 or 500 μg/mouse i.p. at 2 and 7 h post-APAP, 24 h",dose-dependently reduced
same,survival after CLP vs scrambled peptide,[6],significantly and dose-dependently improved survival rates
same,"inhibition of TNF release mediated by Poly I:C, S100A12, LPS, PGN and CpG DNA",[7],failed to inhibit
same,"hepatic serum enzyme release (AST, ALT) and neutrophil infiltration",[8],significantly blunted
same,binding to TLR4,"human TLR4; SPR, absence of MD2",failed to bind
same,binding to HMGB1,HMGB1,failed to bind
"H2S-modified HMGB1: HMGB1 with cysteine modified by H2S (NaSH) (protein, UniProt P09429 1-215, looked up, cysteine modified by H2S) High mobility group protein B1: MGKGDPKKPRGKMSSYAFFVQTCREEHKKKHPDASVNFSEFSKKCSERWKTMSAKEKGKFEDMAKADKARYEREMKTYIPPKGETKKKFKDPNAPKRPPSAFFLFCSEYRPKIKGEHPGLSIGDVAKKLGEMWNNTAADDKQPYEKKAAKLKEKYEKDIAAYRAKGKPDAAKKGVVKAEKSKKKKEEEEDEEDEEDEEEEEDEEDEDEEEDDDDE",TNF release induced by HMGB1 isoform,RAW 264.7 cells,failed to induce TNF release
sulfonyl HMGB1: HMGB1 with all cysteines terminally oxidized (protein) MGKGDPKKPRGKMSSYAFFVQTCREEHKKKHPDASVNFSEFSKKCSERWKTMSAKEKGKFEDMAKADKARYEREMKTYIPPKGETKKKFKDPNAPKRPPSAFFLFCSEYRPKIKGEHPGLSIGDVAKKLGEMWNNTAADDKQPYEKKAAKLKEKYEKDIAAYRAKGKPDAAKKGVVKAEKSKKKKEEEDDEEDEEDEEEEEEEEDEDEEEDDDDE,TNF release induced by HMGB1 isoform,RAW 264.7 cells,failed to induce TNF release
fully reduced HMGB1: HMGB1 with all cysteine residues reduced (protein) MGKGDPKKPRGKMSSYAFFVQTCREEHKKKHPDASVNFSEFSKKCSERWKTMSAKEKGKFEDMAKADKARYEREMKTYIPPKGETKKKFKDPNAPKRPPSAFFLFCSEYRPKIKGEHPGLSIGDVAKKLGEMWNNTAADDKQPYEKKAAKLKEKYEKDIAAYRAKGKPDAAKKGVVKAEKSKKKKEEEDDEEDEEDEEEEEEEEDEDEEEDDDDE,TNF release induced by HMGB1 isoform,RAW 264.7 cells,failed to induce TNF release
